Measurements: patent publication US20060079453A1, “Hla binding peptides and their uses” (priority 2002, published 2006)
pIC50: −log10 of the molar value. Read-outs that look alike come from different tables or passages of the source. No end group written: not given here.

Legend:
Test in all cases: biochemical
Format in all cases: binding
HLA-DR DRB1*1501 (DR15) = HLA-DR DRB1*1501 (DR15) (Homo sapiens, UniProt P01903+P01911)
HLA-DR DRB1*1101 (DR11) = HLA-DR DRB1*1101 (DR11) (Homo sapiens, UniProt P01903+P01911, A100R/A169T/A87E/I96F/K41T/L162R/M171V/P40S/Q125H/Q178H/Q39Y/Q99D/R42S/S66Y/T262R/V115G/W38E)
Sequence of HLA-DR DRB1*1101 (DR11) (P01903 26-254 limits assumed, other chains not shown): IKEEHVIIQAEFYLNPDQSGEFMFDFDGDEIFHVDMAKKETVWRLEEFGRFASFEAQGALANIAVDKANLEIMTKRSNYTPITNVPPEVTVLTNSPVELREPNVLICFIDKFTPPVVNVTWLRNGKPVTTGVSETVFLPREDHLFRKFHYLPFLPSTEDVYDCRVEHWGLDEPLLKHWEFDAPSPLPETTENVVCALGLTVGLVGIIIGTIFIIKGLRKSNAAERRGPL

HLA-DR DRB4*0101 (DR53) = HLA-DR DRB4*0101 (DR53) (Homo sapiens, UniProt P01903+P13762, G164S)
HLA-DR DRB1*0401 (DR4) = HLA-DR DRB1*0401 (DR4) (Homo sapiens, UniProt P01903+P01911, A100K/A169T/F76Y/I96L/K127E/L162R/M171V/N62H/P40V/Q125Y/R42H/S133A/S149N/S66Y/V115G/V209L/W38E)
HLA-DR DRB1*0301 (DR3) = HLA-DR DRB1*0301 (DR3) (Homo sapiens, UniProt P01903+P01911, A100K/A102G/A103R/A169T/F55Y/I96L/K41T/L162R/M171V/P40S/Q125H/Q178H/Q39Y/R42S/S66N/T106N/T262R/W38E/Y61H)
Sequence of HLA-DR DRB1*0301 (DR3) (P01903 26-254 limits assumed, other chains not shown): as above

HLA-DR DRB1*0405 (DR4) = HLA-DR DRB1*0405 (DR4) (Homo sapiens, UniProt P01903+P01911, A100R/A169T/D86S/F76Y/I96L/K127E/L162R/M171V/N62H/P40V/Q125Y/R42H/S133A/S149N/S66Y/V115G/V209L/W38E)
HLA-DR DRB1*0101 (DR1) = HLA-DR DRB1*0101 (DR1) (Homo sapiens, UniProt P01903+P01911, A100R/D57E/F55L/F60I/F76Y/I96L/L162R/M171V/P40L/Q125E/R42F/V115G/Y59C)
HLA-DR DRB1*0701 (DR7) = HLA-DR DRB1*0701 (DR7) (Homo sapiens, UniProt P01903+P01911, A100R/A102G/A103Q/D57E/D86V/E43K/F76Y/K127E/L162R/M171V/P40G/Q125H/Q99D/R33Q/R42Y/R54Q/S133A/S66F/T210M/V115G/Y107V/Y59L/Y89S)
HLA-DR DRB3*0101 (DR52) = HLA-DR DRB3*0101 (DR52) (Homo sapiens, UniProt P01903+P79483)
HLA-DR DRB5*0101 (DR51) = HLA-DR DRB5*0101 (DR51) (Homo sapiens, UniProt P01903+Q30154)
HLA-DR DRB1*1302 (DR13) = HLA-DR DRB1*1302 (DR13) (Homo sapiens, UniProt P01903+P01911, A100E/A169T/K41T/L162R/M171V/P40S/Q125H/Q178H/Q39Y/Q99D/R42S/S66N/T262R/V115G/W38E/Y61H)
Sequence of HLA-DR DRB1*1302 (DR13) (P01903 26-254 limits assumed, other chains not shown): as above

HLA-DR DRB1*0901 (DR9) = HLA-DR DRB1*0901 (DR9) (Homo sapiens, UniProt P01903+P01911, A100R/A103E/D57H/D86V/F55Y/F60I/F76Y/I96F/K127E/L162R/M171V/P40D/Q125H/Q99R/R33Q/R42F/S133A/S66N/T210M/V115G/W38K/Y107V/Y59G/Y89S); conditions: DRB1 *0901
HLA-DR DRB1*0802 (DR8) = HLA-DR DRB1*0802 (DR8) (Homo sapiens, UniProt P01903+P01911, A100R/A103L/A169T/F76Y/H45Y/I96F/K41T/L162R/M171V/P40S/Q125H/Q178H/Q39Y/Q99D/R218S/R42G/S66Y/V115G/W38E)

| Compound | pIC50 (HLA-DR DRB1*1501 (DR15)) | pIC50 (HLA-DR DRB1*1101 (DR11)) | pIC50 (HLA-DR DRB4*0101 (DR53)) | pIC50 (HLA-DR DRB1*0401 (DR4)) | pIC50 (HLA-DR DRB1*0301 (DR3)) | pIC50 (HLA-DR DRB1*0405 (DR4)) | pIC50 (HLA-DR DRB1*0101 (DR1)) | pIC50 (HLA-DR DRB1*0701 (DR7)) | pIC50 (HLA-DR DRB3*0101 (DR52)) | pIC50 (HLA-DR DRB5*0101 (DR51)) | pIC50 (HLA-DR DRB1*1302 (DR13)) | further results |
| --- | --- | --- | --- | --- | --- | --- | --- | --- | --- | --- | --- | --- |
| VGGVYLLARRGPRLGV | 8.55 | 8.19 | 5.36 | 6.31 | 4.63 | 5.66 | 7.22 | 6.23 | 4.77 | 7.77 | – | – |
| VGGVALLPRRGPRLGV | 8.07 | – | 4.59 | 4.32 | 3.49 | < 4.91 | 6.07 | 4.21 | < 4.18 | 4.69 | < 4.81 | – |
| CC[C@H](C)[C@H](NC(=O)[C@H](CCC(=O)O)NC(=O)[C@@H](NC(=O)[C@H](Cc1ccc(O)cc1)NC(=O)[C@H](CCC(=O)O)NC(=O)[C@@H](N)CCC(=O)O)C(C)C)C(=O)N[C@@H](CCCNC(=N)N)C(=O)N[C@@H](CCC(N)=O)C(=O)N[C@H](C(=O)NCC(=O)N[C@@H](CC(=O)O)C(=O)N[C@@H](Cc1ccccc1)C(=O)N[C@@H](Cc1c[nH]cn1)C(=O)O)C(C)C | – | – | – | – | 4.13 | – | – | – | – | – | – | pIC50 (HLA-DR DRB1*1501 (DR15); DRBI *1501): 5.69; pIC50 (HLA-DR DRB1*0901 (DR9)): 4.95; pIC50 (HLA-DR DRB1*1101 (DR11); DRB1 *1101): 5.33; pIC50 (HLA-DR DRB4*0101 (DR53); DRB4 *0101): 5.69; pIC50 (HLA-DR DRB1*0401 (DR4); DRB1 *0401): < 5.27; pIC50 (HLA-DR DRB1*0405 (DR4); DRB1 *0405): 7.59; pIC50 (HLA-DR DRB1*0101 (DR1); DRB1 *0101): < 5.71; pIC50 (HLA-DR DRB1*0701 (DR7); DRB1 *0701): 4.95; pIC50 (HLA-DR DRB1*1302 (DR13); DRBI *1302): < 5.72; pIC50 (HLA-DR DRB1*0802 (DR8)): 4.86; pIC50 (HLA-DR DRB5*0101 (DR51); DRB5 *0101): 5.01 |
| GAALGGAARALAHGV | 5.35 | 6.77 | – | – | 4.57 | < 4.88 | – | 4.53 | < 4.15 | 4.60 | 4.71 | – |
| GAPLGGAARALAAGV | 5.24 | 7.35 | 5.41 | 4.95 | 4.63 | < 5.47 | – | 5.13 | < 4.29 | 5.08 | 4.63 | – |
| HLDMLRHLYQGCQVV | – | – | – | – | 4.43 | – | – | – | 3.97 | – | – | pIC50 (HLA-DR DRB1*1501 (DR15); DRBI *1501): 6.44; pIC50 (HLA-DR DRB4*0101 (DR53); DRB4 *0101): 6.79; pIC50 (HLA-DR DRB1*0401 (DR4); DRB1 *0401): 5.03; pIC50 (HLA-DR DRB1*0405 (DR4); DRB1 *0405): 5.44; pIC50 (HLA-DR DRB1*0101 (DR1); DRB1 *0101): 6.52; pIC50 (HLA-DR DRB1*0701 (DR7); DRB1 *0701): 4.57; pIC50 (HLA-DR DRB1*1302 (DR13); DRBI *1302): 5.54; pIC50 (HLA-DR DRB5*0101 (DR51); DRB5 *0101): 5.15 |
| ALWRVSAEEY | – | – | – | – | < 4.12 | – | – | – | – | – | – | pIC50 (HLA-DR DRB1*1501 (DR15); DRBI *1501): < 4.82; pIC50 (HLA-DR DRB1*0901 (DR9)): 6.16; pIC50 (HLA-DR DRB1*1101 (DR11); DRB1 *1101): 6.61; pIC50 (HLA-DR DRB4*0101 (DR53); DRB4 *0101): < 5.10; pIC50 (HLA-DR DRB1*0401 (DR4); DRB1 *0401): 5.18; pIC50 (HLA-DR DRB1*0405 (DR4); DRB1 *0405): < 4.45; pIC50 (HLA-DR DRB1*0101 (DR1); DRB1 *0101): < 5.20; pIC50 (HLA-DR DRB1*0701 (DR7); DRB1 *0701): 5.10; pIC50 (HLA-DR DRB1*1302 (DR13); DRBI *1302): < 5.19; pIC50 (HLA-DR DRB1*0802 (DR8)): 5.39; pIC50 (HLA-DR DRB5*0101 (DR51); DRB5 *0101): < 4.45 |
| VGGAYLLPRRGPRLGV | 8.39 | – | 4.42 | 4.58 | 3.51 | < 4.91 | 6.88 | 6.15 | < 4.18 | 7.30 | 4.61 | – |
| GAPLGAAARALAHGV | 5.41 | 7.44 | 4.78 | – | – | < 4.88 | 6.65 | 5.19 | < 4.15 | 5.35 | 4.82 | – |
| GAPLGGAARAAAHGV | < 5.06 | 5.44 | 4.38 | 4.60 | 3.42 | < 5.47 | – | 4.50 | < 4.29 | 4.37 | < 4.63 | – |
| GAPLGGLARALAHGV | – | 7.92 | 5.40 | 4.86 | 3.45 | < 4.88 | 6.27 | 7.18 | 3.91 | 5.37 | 7.12 | – |
| GAPLAGAARALAHGV | 5.55 | 8.02 | 5.53 | 4.40 | 5.53 | < 4.88 | – | 5.09 | < 4.15 | 5.11 | 5.14 | – |
| VGGVYALPRRGPRLGV | 6.35 | 7.92 | – | 4.59 | 3.46 | < 4.91 | – | 6.13 | < 4.18 | 7.47 | < 4.81 | – |
| GAPLGGAAAALAHGV | 5.11 | 4.36 | 7.51 | 5.26 | 4.09 | < 5.47 | – | 4.50 | < 4.29 | 4.89 | 4.62 | – |
| GAPLGGAARALAHGV | – | – | – | – | – | – | – | – | < 4.15 | – | – | pIC50 (HLA-DR DRB1*1501 (DR15); DRBI *1501): 5.79; pIC50 (HLA-DR DRB1*1101 (DR11); DRB1 *1101): 7.62; pIC50 (HLA-DR DRB1*0405 (DR4); DRB1 *0405): < 4.88; pIC50 (HLA-DR DRB1*0101 (DR1); DRB1 *0101): 6.16; pIC50 (HLA-DR DRB1*1302 (DR13); DRBI *1302): 5.06; pIC50 (HLA-DR DRB5*0101 (DR51); DRB5 *0101): 4.92 |
| GAPLGGAARLLAHGV | 6.20 | 7.10 | 5.59 | 4.82 | 4.64 | < 5.47 | 6.40 | 4.24 | < 4.29 | – | 4.53 | – |
| VGGVYLLRRAGPRLGV | 8.21 | 7.17 | 4.51 | – | 4.40 | 5.19 | – | 6.36 | 4.04 | 8.10 | < 4.81 | – |
